Test results: paper PMC8781960, “Structural Basis of 2-Phenylamino-4-phenoxyquinoline Derivatives as Potent HIV-1 Non-Nucleoside Reverse Transcriptase Inhibitors” (Molecules, 2022)
Marks after values point to notes of the source that are not given here.

Assays:
HIV-1 RT [1] = target: T1, HIV-1 RT (Human immunodeficiency virus type 1 group M subtype B, UniProt P03366); design: method as in PMID 31698495; settings: 1 µM; previously reported values for 5a–5d; cited from earlier work
T1 construct: The reaction mixture consisted of template/primer complex, 2′-deoxy-nucleotide-5′-triphosphates (dNTPs), and RT enzyme in lysis buffer; purchased Roche Applied Science, Mannheim, Germany

[2] = test system: H69AR (lung cancer, multidrug resistant); assay: In vitro cytotoxicity (MTT); assay type: cell-based, human; settings: human, 48 h, 50 µg/mL
Description: Background control wells contained the same volume as the complete culture medium. […] The reagent was dissolved in phosphate-buffered saline at 5 mg/mL and filtered to sterilize and remove the small amount of insoluble residue present in some batches of MTT. […] Subsequently, dimethyl sulfoxide (100 µL; Merck, Germany) was added to dissolve the resulting formazan by sonication. The plates were read on a microplate reader (Molecular Devices, CA, USA) using a test wavelength of 550 nm and a reference wavelength of 650 nm.

HL-60 (promyeloblast) = assay: In vitro cytotoxicity (MTT); settings: for IC50: Homo sapiens, HL-60, 48 h, read-out: IC50 HL-60; for %C percentage cytotoxicity HL-60: at 50 µg/mL, inactive (IC50 ≥ 50 µg/mL)
Description: (§1) Background control wells contained the same volume as the complete culture medium. […] Samples at various concentrations were added to the microplate and incubated for another 48 h. Cell viability was determined by 3(4,5-dimethylthiazol-2-yl)-2-5-diphenyl tetrazolium bromide (MTT) assay (Sig-ma-Aldrich). The reagent was dissolved in phosphate-buffered saline at 5 mg/mL and filtered to sterilize and remove the small amount of insoluble residue present in some batches of MTT. […] Subsequently, dimethyl sulfoxide (100 µL; Merck, Germany) was added to dissolve the resulting formazan by sonication. The plates were read on a microplate reader (Molecular Devices, CA, USA) using a test wavelength of 550 nm and a reference wavelength of 650 nm. XTT assay for suspension cells was used for MOLT-3 cells.

[3] = test system: HuCCA-1 (cholangiocarcinoma); assay: In vitro cytotoxicity (MTT); settings: for IC50: Homo sapiens, HuCC-A1, 48 h, read-out: IC50 HuCCA-1; for %C percentage cytotoxicity HuCCA-1: at 50 µg/mL, inactive (IC50 ≥ 50 µg/mL)
Description: as §1

[4] = test system: HeLA (cervical carcinoma); assay: In vitro cytotoxicity (MTT); settings: for IC50: Homo sapiens, HeLa, 48 h, read-out: IC50 HeLA; for %C percentage cytotoxicity HeLA: at 50 µg/mL, inactive (IC50 ≥ 50 µg/mL)
Description: as §1

[5] = test system: T47-D (hormone-dependent breast cancer); assay: In vitro cytotoxicity (MTT); settings: for IC50: Homo sapiens, T47D, 48 h, read-out: IC50 T47-D; for %C percentage cytotoxicity T47-D: at 50 µg/mL, inactive (IC50 ≥ 50 µg/mL)
Description: as §1

A549 (lung carcinoma) = assay: In vitro cytotoxicity (MTT); settings: for IC50: Homo sapiens, A549, 48 h, read-out: IC50 A549; for %C percentage cytotoxicity A549: at 50 µg/mL, inactive (IC50 ≥ 50 µg/mL)
Description: as §1

HepG2 (hepatocarcinoma) = assay: In vitro cytotoxicity (MTT); settings: for IC50: Homo sapiens, HepG2, 48 h, read-out: IC50 HepG2; for %C percentage cytotoxicity HepG2: at 50 µg/mL, inactive (IC50 ≥ 50 µg/mL)
Description: as §1

S102 (Thai liver cancer) = assay: In vitro cytotoxicity (MTT); settings: at 50 µg/mL; inactive (IC50 ≥ 50 µg/mL)
Description: as §1

[6] = test system: MDA-MB-231 (hormone-independent breast cancer); assay: In vitro cytotoxicity (MTT); settings: for IC50: Homo sapiens, MDA-MB-231, 48 h, read-out: IC50 MDA-MB-231; for %C percentage cytotoxicity MDA-MB-231: at 50 µg/mL, inactive (IC50 ≥ 50 µg/mL)
Description: as §1

[7] = test system: MOLT-3 (acute lymphoblastic leukemia); assay: In vitro cytotoxicity (XTT); settings: for IC50: Homo sapiens, MOLT-3, 48 h, read-out: IC50 MOLT-3; for %C percentage cytotoxicity MOLT-3: at 50 µg/mL, inactive (IC50 ≥ 50 µg/mL)
Description: as §1

[8] = test system: MRC-5 (normal embryonic lung cell); assay: In vitro cytotoxicity (MTT), normal cell line; settings: for IC50: Homo sapiens, MRC5, 48 h, read-out: IC50 MRC-5; for %C percentage cytotoxicity MRC-5: normal cell line, at 50 µg/mL, inactive (IC50 ≥ 50 µg/mL)
Description: as §1

HIV-1 RT [9] = target: T1, HIV-1 RT; assay: HIV-1 RT inhibition assay (Roche RT kit, colorimetric ELISA); assay type: biochemical; settings: for inhibition at 1 µM: read-out: Inhibitory activities (%) against HIV-1 RT
Text: The inhibition assay of HIV-1 RT was accomplished using the template/primer hybrid poly(A) × oligo(dT)15, digoxigenin (DIG)- and biotin-labeled nucleotides, an antibody to DIG that was conjugated to peroxidase (anti-DIG-POD), and the peroxidase substrate ABTS. The quantities of DIG- and biotin-labeled dUTP incorporated into DNA represent t HIV-1 RT activity. The HIV-RT inhibition assay was implemented using an RT assay kit (Roche Applied Science, Mannheim, Germany), and the procedures for assaying RT inhibition were performed as described in the kit protocol. […] The reaction mixture consisted of template/primer complex, 2′-deoxy-nucleotide-5′-triphosphates (dNTPs), and RT enzyme in lysis buffer with or without an inhibitor. […] The biotin-labeled dNTPs that were incorporated in the template bound to streptavidin because of the presence of RT. Unbound dNTPs were washed using a wash buffer, and anti-DIG-POD was added to the MTP. The DIG-labeled dNTPs incorporated in the template bound to the anti-DIG-POD antibody. Unbound anti-DIG-POD was also washed elaborately five times using a wash buffer. Finally, the peroxide substrate (ABST) was added to the MTP. A colored reaction product emerged during the cleavage of the substrate catalyzed by […]. The absorbance of the sample was measured at the optical density (OD) at 490 nm using the MTP (enzyme-linked immunosorbent assay [ELISA]) reader. The percentage inhibitory activities of the RT inhibitors were calculated by comparing with that of the sample without an inhibitor. The resulting color intensity was directly proportional to the RT activity. Percentage inhibitory values were calculated using the following formula: Inhibition (%) = [1–(OD value with RT and inhibitor−OD value without RT and inhibitors)/(OD value without inhibitors with RT−OD value without RT and inhibitors)] × 100.

Compound | Inhibitory activities (%) against HIV-1 RT (HIV-1 RT [1]) [%] | %C percentage cytotoxicity H69AR [2] | IC50 (HL-60 (promyeloblast)) [µM] | IC50 [3] [µM] | IC50 [4] [µM] | IC50 (HepG2 (hepatocarcinoma)) [µM] | %C percentage cytotoxicity S102 (S102 (Thai liver cancer)) | IC50 [6] [µM] | melting point [°C] | IC50 [7] [µM] | %C percentage cytotoxicity HuCCA-1 [3] | %C percentage cytotoxicity T47-D [5] | %C percentage cytotoxicity A549 (A549 (lung carcinoma)) | %C percentage cytotoxicity HepG2 (HepG2 (hepatocarcinoma)) | %C percentage cytotoxicity MDA-MB-231 [6] | %C percentage cytotoxicity MRC-5 [8] | inhibition at 1 µM (HIV-1 RT [9]) [%] | %C percentage cytotoxicity HL-60 (HL-60 (promyeloblast)) | %C percentage cytotoxicity HeLA [4] | %C percentage cytotoxicity MOLT-3 [7] | other results
N#Cc1ccc(Nc2cc(Oc3ccc(C=O)cc3)c3ccccc3n2)cc1 [Compound 5a, 4-(4′-formylphenoxy)-2-(4″-cyanophenyl)-aminoquinoline] | 19.4 ± 1.7 | %C = 38.0 ^c | 16.6 ± 4.7 | 29.7 ± 2 | 12.6 ± 1.3 | 73.2 ± 7.7 | %C = 20.9 ^c | 77.7 ± 5.9 | 267.1 to 268 | 15.6 ± 3.6 |  |  |  |  |  |  |  |  |  |  | IC50 [5]: 43 ± 5.3 µM; IC50 (A549 (lung carcinoma)): 122 ± 4.5 µM; IC50 [8]: 108 ± 4.7 µM
Cc1cc(C#N)cc(C)c1Oc1cc(Nc2ccc(C#N)cc2)nc2ccccc12 [Compound 5d, 4-(2′,6′-Dimethyl-4′-cyanophenoxy)-2-(4″-cyanophenyl)-aminoquinoline] | 27.8 ± 3.1 | %C = 0.0 ^c | 33.4 ± 1.7 |  | 83.4 ± 5.7 |  | %C = 0.0 ^c |  | 256.5 to 257 | 48.8 ± 41 | %C = 3.0 ^c | %C = 24.0 ^c | %C = 21.0 ^c | %C = 38.2 ^c | %C = 14.9 ^c | %C = 7.4 ^c |  |  |  |  | 
O=Cc1ccc(Oc2cc(Oc3ccc(C=O)cc3)c3ccccc3n2)cc1 [Compound 4a, 2,4-di-(4′-formylphenoxy)-quinoline] |  | %C = 0.0 ^c | 92.4 ± 3.1 | 48.1 ± 1.7 | 104 ± 7.9 | 90.9 ± 2.1 | %C = 0.4 ^c |  | 164.9 to 165.5 | 25.1 ± 2.6 |  | %C = 34.0 ^c | %C = 40.0 ^c |  | %C = 43.3 ^c |  | 17.3 ± 2.4 |  |  |  | IC50 [8]: 84.3 ± 9.6 µM
Cc1cc(C=O)cc(C)c1Oc1cc(Nc2ccc(C#N)cc2)c2ccccc2n1 [Compound 8b, 2-(2′,6′-Dimethyl-4′-formylphenoxy)-4-(4″-cyanophenyl)-aminoquinoline] |  | %C = 6.0 ^c | 34.9 ± 5.1 |  | 42.3 ± 2.7 | 106 ± 9.7 | %C = 0.0 ^c | 107 ± 3.2 | 200 to 201.3 | 22.3 ± 1.9 | %C = 43.0 ^c | %C = 38.0 ^c | %C = 37.0 ^c |  |  | %C = 9.7 ^c | 39.6 ± 1.5 |  |  |  | 
N#Cc1ccc(Nc2cc(Oc3ccc(C#N)cc3)nc3ccccc23)cc1 [Compound 8c, 2-(4′-cyanophenoxy)-4-(4″-cyanophenyl)-aminoquinoline] |  | %C = 21.0 ^c |  |  |  |  | %C = 0.0 ^c |  | 187.5 to 188 |  | %C = 25.8 ^c | %C = 35.0 ^c | %C = 29.0 ^c | %C = 40.3 ^c | %C = 0.0 ^c | %C = 17.2 ^c | 28.1 ± 3 | %C = 1.0 ^c | %C = 0.0 ^c | %C = 2.1 ^c | 
Cc1cc(C#N)cc(C)c1Oc1cc(Nc2ccc(C#N)cn2)nc2ccccc12 [Compound 6d, 4-(2′,6′-Dimethyl-4′-cyanophenoxy)-2-(5’’-cyanopyridin-2’’ylamino)quinoline] |  | %C = 0.0 ^c |  |  |  |  | %C = 0.0 ^c |  | 229.4 to 230.3 |  | %C = 0.0 ^c | %C = 1.0 ^c | %C = 8.0 ^c | %C = 0.0 ^c | %C = 8.3 ^c | %C = 0.0 ^c | 45.1 ± 1.5 | %C = 13.0 ^c | %C = 0.0 ^c | %C = 27.0 ^c | IC50 (HIV-1 RT [9]): 1.22 µM; cytotoxicity toward normal embryonic lung (MRC-5) cells, in words [8]: no cytotoxicity
O=Cc1ccc(Oc2cc(-c3cc(Oc4ccc(C=O)cc4)c4ccccc4n3)nc3ccccc23)cc1 [Compound 7a, 4,4′-di-(4′-formylphenoxy)-2,2′-biquinoline] |  | %C = 20.0 ^c |  | 88.2 ± 4.4 | 88 ± 4.3 | 69.8 ± 11.8 | %C = 17.6 ^c | 74.1 ± 5.3 | 288.7 to 289.3 | 74.2 ± 6.3 |  |  |  |  |  | %C = 33.9 ^c | 22.9 ± 1.2 | %C = 25.0 ^c |  |  | IC50 [5]: 96.1 ± 3.3 µM; IC50 (A549 (lung carcinoma)): 69.5 ± 3.3 µM
N#Cc1ccc(Oc2cc(Oc3ccc(C#N)cc3)c3ccccc3n2)cc1 [Compound 4c, 2,4-di-(4′-cyanophenoxy)-quinoline] |  | %C = 21.0 ^c |  |  |  |  | %C = 23.7 ^c | 92.5 ± 4.2 | 220.9 to 221.5 |  | %C = 15.0 ^c | %C = 27.0 ^c | %C = 12.0 ^c | %C = 41.4 ^c |  |  | 30.9 ± 1.8 | %C = 15.0 ^c | %C = 23.0 ^c | %C = 11.0 ^c | IC50 [8]: 108 ± 6.4 µM
N#Cc1ccc(Nc2cc(Oc3ccc(C#N)cc3)c3ccccc3n2)cc1 [Compound 5c, 4-(4′-cyanophenoxy)-2-(4″-cyanophenyl)-aminoquinoline] | 39.7 ± 3.0 | %C = 26.0 ^c |  |  |  |  | %C = 0.0 ^c |  |  |  | %C = 23.0 ^c | %C = 45.0 ^c | %C = 26.0 ^c | %C = 44.8 ^c | %C = 38.4 ^c | %C = 12.0 ^c |  | %C = 2.0 ^c | %C = 25.0 ^c | %C = 6.0 ^c | 
Cc1cc(C#N)cc(C)c1Oc1cc(Nc2ccc(C#N)cc2)c2ccccc2n1 [Compound 8d, 2-(2′,6′-Dimethyl-4′-cyanophenoxy)-4-(4″-cyanophenyl)-aminoquinoline] |  | %C = 0.0 ^c | 56.6 ± 4.7 |  | 104 ± 4.7 |  | %C = 0.0 ^c |  | 201.3 to 202 | 67.4 ± 3.1 | %C = 18.4 ^c | %C = 31.0 ^c | %C = 29.1 ^c | %C = 32.0 ^c | %C = 32.4 ^c | %C = 15.5 ^c | 34.5 ± 2.3 |  |  |  | 
